Data taken from article PMC5541372 (Biochemistry, 2017).

Molecular target: T1, NOV2 (Novosphingobium aromaticivorans, UniProt Q2G4H8)
T1 sequence (Q2G4H8 1-497): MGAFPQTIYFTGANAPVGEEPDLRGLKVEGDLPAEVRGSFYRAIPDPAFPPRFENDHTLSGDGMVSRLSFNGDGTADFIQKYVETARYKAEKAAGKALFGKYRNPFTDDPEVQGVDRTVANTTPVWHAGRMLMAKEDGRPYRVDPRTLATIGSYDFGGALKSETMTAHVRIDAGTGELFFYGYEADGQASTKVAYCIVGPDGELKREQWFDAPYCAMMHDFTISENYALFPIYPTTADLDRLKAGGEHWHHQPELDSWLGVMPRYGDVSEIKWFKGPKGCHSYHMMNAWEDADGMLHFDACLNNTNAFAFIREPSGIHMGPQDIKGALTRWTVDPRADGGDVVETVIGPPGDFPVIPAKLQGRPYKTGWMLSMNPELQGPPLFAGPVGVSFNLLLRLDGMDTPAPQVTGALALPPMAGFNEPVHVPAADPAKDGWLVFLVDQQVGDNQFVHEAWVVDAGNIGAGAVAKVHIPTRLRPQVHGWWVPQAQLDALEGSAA
Test: EPR of Fe-NO adduct and […] Mössbauer
Format: binding
Settings: anaerobic, NO present for EPR

SMILES | EPR of Fe-NO adduct and 57Fe Mössbauer (4-10 equiv substrate, pH 8.5 or 7.5) | EPR of Fe-NO adduct and 57Fe Mössbauer (4 equiv substrate, pH 8.5)
Oc1cc(O)cc(/C=C/c2ccc(O)c(O)c2)c1 [piceatannol] | nearly all active sites had substrate bound | –
Oc1ccc(/C=C/c2cc(O)cc(O)c2)cc1 [resveratrol] | – | The resveratrol ES+NO of NOV2 showed EPR spectra (Figure 5D) similar to those with piceatannol
